Among the test systems are SW-620 colon; OVCAR-3 ovarian; OVCAR-8 ovarian; NCI-H23 lung; 786-0 renal; A498 renal; NCI-H226 lung; SK-MEL-2 melanoma; MOLT-4 leukemia; IGROV1 ovarian; UACC-257 melanoma; A549 NSCLC; DU-145 prostate; OVCAR-5 ovarian; HT29 colon; HOP-92 NSCLC; SNB-75 CNS; COLO 205 colon; NCI-H460 lung; EKVX NSCLC.
What all share (assay): NCI tumour cell line growth inhibition, 48 h

Structures are written as SMILES.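 48-hour exposure; five concentrations; linearly interpolated endpoints. TGI marks complete inhibition of growth.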 Bounds are passed on as bounds.

Consider `COC(=O)C(Cc1ccc(Oc2cc(CC(NC(=O)c3ccccc3)C(=O)OC)ccc2OC)cc1)NC(=O)c1ccccc1` (stereo not given), for which the TGI in the assay on SW-620 colon is greater than 100 µM; in the assay on OVCAR-3 ovarian, greater than 87.3 µM; in the assay with OVCAR-8 ovarian, greater than 60.9 µM; in the assay on NCI-H23 lung, greater than 82.2 µM; with 786-0 renal it was 30 µM; with A498 renal it was greater than 100 µM. Further, the TGI was greater than 64.5 µM in the assay on NCI-H226 lung; greater than 74 µM with SK-MEL-2 melanoma; greater than 100 µM in the assay with MOLT-4 leukemia; greater than 100 µM with IGROV1 ovarian; 23.8 µM in the assay with UACC-257 melanoma; greater than 100 µM in the assay on A549 NSCLC. In addition, the TGI is greater than 50.3 µM in the assay with DU-145 prostate; greater than 100 µM in the assay on OVCAR-5 ovarian; greater than 100 µM with HT29 colon; greater than 65.1 µM with HOP-92 NSCLC; greater than 100 µM with SNB-75 CNS; greater than 73.2 µM with COLO 205 colon. For the same molecule, the TGI was greater than 100 µM with NCI-H460 lung and greater than 86.9 µM with EKVX NSCLC.
Regarding `N#Cc1ccc(C(=O)/C=C/c2ccc(O)c(O)c2)cc1`, the TGI was 26.2 µM in the assay with SW-620 colon; 29.3 µM with OVCAR-3 ovarian; greater than 54.8 µM in the assay with OVCAR-8 ovarian; 33 µM in the assay with NCI-H23 lung; greater than 52.9 µM in the assay on 786-0 renal; 31.9 µM in the assay on A498 renal. The TGI in the assay with NCI-H226 lung came out at 62.7 µM; in the assay on SK-MEL-2 melanoma it was 33.8 µM; with MOLT-4 leukemia, 37.6 µM; in the assay on IGROV1 ovarian it was 27 µM; in the assay with UACC-257 melanoma, 30 µM; in the assay on A549 NSCLC it was 31.8 µM. Besides, the TGI is 30 µM in the assay on DU-145 prostate; 33.5 µM in the assay on OVCAR-5 ovarian; 31.2 µM in the assay with HT29 colon; 29.6 µM in the assay on HOP-92 NSCLC; 36.6 µM with SNB-75 CNS; 30.5 µM with COLO 205 colon. Besides, the TGI in the assay on NCI-H460 lung turned out to be 29.8 µM; in the assay on EKVX NSCLC it was 31.8 µM.
As to `Cc1c(F)c(N)c2c(=O)cc(-c3ccc(N)c(F)c3)oc2c1F`, the TGI with SW-620 colon was greater than 100 µM; in the assay on OVCAR-3 ovarian, greater than 100 µM; with OVCAR-8 ovarian it was 58.7 µM; in the assay with NCI-H23 lung, 68.4 µM; in the assay with 786-0 renal, 34.9 µM; in the assay with A498 renal it was 8.74 µM. Besides, the TGI with NCI-H226 lung is 36 µM; in the assay with SK-MEL-2 melanoma it was 81.2 µM; in the assay with MOLT-4 leukemia, greater than 100 µM; with IGROV1 ovarian, 25.2 µM; in the assay on UACC-257 melanoma, greater than 100 µM; in the assay with A549 NSCLC it was 59 µM. Further, the TGI in the assay with DU-145 prostate is greater than 100 µM; in the assay with OVCAR-5 ovarian, 15.8 µM; in the assay with HT29 colon, 98.6 µM; in the assay with HOP-92 NSCLC, 63.8 µM; in the assay with SNB-75 CNS, 56.2 µM; in the assay on COLO 205 colon it was greater than 100 µM. For the same molecule, the TGI in the assay with NCI-H460 lung amounted to 24.2 µM; with EKVX NSCLC, 54.7 µM.
Consider `CCOC(=O)/C(=C\c1ccc(C#N)cc1)C(C)=O`, for which the TGI in the assay on SW-620 colon is greater than 100 µM; with OVCAR-3 ovarian it was greater than 100 µM; in the assay with OVCAR-8 ovarian it was 96.9 µM; in the assay with NCI-H23 lung it was 36.7 µM; with 786-0 renal it was 32.9 µM; in the assay on A498 renal it was 30 µM. In addition, the TGI in the assay with NCI-H226 lung was 89.3 µM; in the assay on SK-MEL-2 melanoma it was 31.3 µM; in the assay with MOLT-4 leukemia it was greater than 100 µM; in the assay with IGROV1 ovarian, 33.9 µM; in the assay with UACC-257 melanoma, 43.2 µM; in the assay with A549 NSCLC it was greater than 100 µM. Moreover, the TGI in the assay on DU-145 prostate is 37.7 µM; in the assay on OVCAR-5 ovarian, greater than 100 µM; in the assay with HT29 colon, greater than 100 µM; in the assay on HOP-92 NSCLC, 50.6 µM; in the assay with SNB-75 CNS, 45.5 µM; in the assay with COLO 205 colon it was greater than 100 µM. For the same molecule, the TGI in the assay on NCI-H460 lung and in the assay on EKVX NSCLC was greater than 100 µM each time.
As to `CN(C)CCCNc1c(C#N)[n+]([O-])c2cc(Cl)ccc2[n+]1[O-]`, the TGI in the assay on SW-620 colon was 37.1 µM; with OVCAR-3 ovarian, greater than 34.9 µM; in the assay with OVCAR-8 ovarian, greater than 51.3 µM; in the assay on NCI-H23 lung, 23.5 µM; with 786-0 renal, greater than 100 µM; in the assay with A498 renal it was greater than 52.4 µM. Further, the TGI with NCI-H226 lung was 48.5 µM; in the assay with SK-MEL-2 melanoma it was 36.4 µM; in the assay with MOLT-4 leukemia, 20.2 µM; with IGROV1 ovarian, 10.5 µM; in the assay with UACC-257 melanoma, greater than 50 µM; with A549 NSCLC it was 31.5 µM. In addition, the TGI in the assay on DU-145 prostate is greater than 100 µM; with OVCAR-5 ovarian it was greater than 100 µM; in the assay with HT29 colon it was greater than 40 µM; in the assay with HOP-92 NSCLC, 25.5 µM; in the assay on SNB-75 CNS, greater than 100 µM; in the assay with COLO 205 colon, 14.6 µM. Besides, the TGI was determined as 13.2 µM with NCI-H460 lung and 22.5 µM in the assay with EKVX NSCLC.
`O=c1n(-c2ccccc2)c(=O)n2n1C1Cc3ccccc3C12` (stereo not given): the TGI with SW-620 colon, with OVCAR-3 ovarian, in the assay on OVCAR-8 ovarian, in the assay with NCI-H23 lung, in the assay with 786-0 renal and in the assay with A498 renal was greater than 100 µM each time. The TGI in the assay with NCI-H226 lung, in the assay with SK-MEL-2 melanoma, in the assay with MOLT-4 leukemia, in the assay on IGROV1 ovarian, with UACC-257 melanoma and with A549 NSCLC was greater than 100 µM each time. Moreover, the TGI in the assay with DU-145 prostate, with OVCAR-5 ovarian, with HT29 colon, with HOP-92 NSCLC, with SNB-75 CNS and in the assay on COLO 205 colon was greater than 100 µM each time. The TGI with NCI-H460 lung and with EKVX NSCLC was greater than 100 µM in each case.
For the molecule `NC1CC(Cl)c2c(Cl)sc(Cl)c21` (stereo not given), the TGI in the assay with SW-620 colon, in the assay with OVCAR-3 ovarian, with OVCAR-8 ovarian, in the assay on NCI-H23 lung, in the assay with 786-0 renal and in the assay on A498 renal was greater than 100 µM each time. The TGI in the assay with NCI-H226 lung, with SK-MEL-2 melanoma, in the assay on MOLT-4 leukemia, in the assay with IGROV1 ovarian, with UACC-257 melanoma and with A549 NSCLC was greater than 100 µM in each case. The TGI in the assay on DU-145 prostate, in the assay on OVCAR-5 ovarian, with HT29 colon, with HOP-92 NSCLC, in the assay with SNB-75 CNS and in the assay on COLO 205 colon was greater than 100 µM throughout. In addition, the TGI in the assay with NCI-H460 lung and in the assay on EKVX NSCLC was greater than 100 µM throughout.

These data come from PubChem BioAssay (NCI).
